How the values were obtained:
[1] = biological target: RAC-alpha serine/threonine-protein kinase (Homo sapiens, UniProt P31749); assay: Inhibition of AKT1 expressed in Escherichia coli or baculovirus-infected insect cells by scintillation proximity assay
[2] = biological target: Tyrosine-protein kinase SYK (Homo sapiens, UniProt P43405); assay: Inhibition of SYK expressed in Escherichia coli or baculovirus-infected insect cells by TR-FRET assay
[3] = biological target: Mitogen-activated protein kinase 14 (Homo sapiens, UniProt Q16539); assay: Inhibition of p38alpha expressed in Escherichia coli or baculovirus-infected insect cells by TR-FRET assay
Chain of Mitogen-activated protein kinase 14 (Q16539 whole entry): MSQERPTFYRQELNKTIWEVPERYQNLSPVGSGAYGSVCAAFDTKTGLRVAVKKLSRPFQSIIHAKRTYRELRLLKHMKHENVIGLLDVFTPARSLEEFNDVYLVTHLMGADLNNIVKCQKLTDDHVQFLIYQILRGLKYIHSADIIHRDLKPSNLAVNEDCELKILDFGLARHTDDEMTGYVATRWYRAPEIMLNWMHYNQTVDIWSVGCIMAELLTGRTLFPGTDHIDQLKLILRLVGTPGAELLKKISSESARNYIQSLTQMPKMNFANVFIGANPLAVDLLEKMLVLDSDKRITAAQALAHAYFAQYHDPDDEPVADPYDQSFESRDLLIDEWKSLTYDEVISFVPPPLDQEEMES

[4] = biological target: T1, Inhibitor of nuclear factor kappa-B kinase subunit beta (Homo sapiens, UniProt O14920); assay: biochemical; format: cell-based
T1 sequence (O14920 whole entry): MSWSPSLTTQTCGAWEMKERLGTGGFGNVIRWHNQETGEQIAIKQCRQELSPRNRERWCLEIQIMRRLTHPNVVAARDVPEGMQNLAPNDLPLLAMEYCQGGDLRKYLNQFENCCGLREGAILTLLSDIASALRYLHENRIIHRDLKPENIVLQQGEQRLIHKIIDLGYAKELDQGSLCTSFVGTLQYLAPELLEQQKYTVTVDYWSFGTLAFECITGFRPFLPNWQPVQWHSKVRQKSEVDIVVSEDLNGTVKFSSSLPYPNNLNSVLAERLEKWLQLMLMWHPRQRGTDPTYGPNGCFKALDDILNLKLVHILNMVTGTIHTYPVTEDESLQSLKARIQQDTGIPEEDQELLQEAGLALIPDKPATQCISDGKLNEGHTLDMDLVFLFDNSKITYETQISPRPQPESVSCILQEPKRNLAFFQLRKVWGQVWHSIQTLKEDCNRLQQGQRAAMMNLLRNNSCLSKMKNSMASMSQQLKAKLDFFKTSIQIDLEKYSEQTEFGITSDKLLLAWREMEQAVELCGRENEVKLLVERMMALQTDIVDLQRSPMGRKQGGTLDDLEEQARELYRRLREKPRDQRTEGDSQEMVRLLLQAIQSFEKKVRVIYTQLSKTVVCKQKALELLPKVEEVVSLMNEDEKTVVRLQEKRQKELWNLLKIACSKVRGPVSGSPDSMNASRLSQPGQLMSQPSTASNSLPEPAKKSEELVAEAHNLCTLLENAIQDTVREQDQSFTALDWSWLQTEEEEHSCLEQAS

[5] = biological target: Mitogen-activated protein kinase 8 (Homo sapiens, UniProt P45983); assay: Inhibition of JNK1 expressed in Escherichia coli or baculovirus-infected insect cells by TR-FRET assay
Chain of Mitogen-activated protein kinase 8 (P45983 whole entry): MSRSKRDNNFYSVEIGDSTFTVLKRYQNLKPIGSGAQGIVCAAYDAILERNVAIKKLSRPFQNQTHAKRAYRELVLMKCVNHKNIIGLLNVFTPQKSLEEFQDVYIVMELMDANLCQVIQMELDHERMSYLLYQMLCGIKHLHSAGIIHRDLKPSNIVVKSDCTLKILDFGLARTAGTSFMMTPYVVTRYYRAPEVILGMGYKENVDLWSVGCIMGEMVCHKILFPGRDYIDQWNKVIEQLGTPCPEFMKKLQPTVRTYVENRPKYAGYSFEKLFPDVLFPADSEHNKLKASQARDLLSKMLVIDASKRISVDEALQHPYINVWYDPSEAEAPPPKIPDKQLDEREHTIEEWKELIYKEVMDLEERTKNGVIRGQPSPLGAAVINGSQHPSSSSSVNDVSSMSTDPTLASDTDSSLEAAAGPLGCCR

Chain of RAC-alpha serine/threonine-protein kinase (P31749 whole entry): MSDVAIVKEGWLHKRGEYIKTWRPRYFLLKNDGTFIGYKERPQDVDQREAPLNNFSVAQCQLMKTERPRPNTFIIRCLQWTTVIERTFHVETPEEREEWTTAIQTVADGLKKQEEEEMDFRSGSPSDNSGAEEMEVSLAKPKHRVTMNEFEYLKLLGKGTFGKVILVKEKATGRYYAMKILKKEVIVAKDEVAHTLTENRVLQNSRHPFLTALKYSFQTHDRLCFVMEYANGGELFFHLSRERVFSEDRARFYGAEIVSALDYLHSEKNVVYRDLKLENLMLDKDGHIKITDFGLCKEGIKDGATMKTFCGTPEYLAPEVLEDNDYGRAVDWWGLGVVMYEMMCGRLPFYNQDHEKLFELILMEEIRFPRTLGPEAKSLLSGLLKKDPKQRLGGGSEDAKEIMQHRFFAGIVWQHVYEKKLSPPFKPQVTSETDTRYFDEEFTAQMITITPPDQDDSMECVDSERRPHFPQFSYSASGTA

Row | IC50 [2] [µM] | IC50 ([3]; read-out: IC50) [µM] | IC50 ([3]; read-out: pIC50 (converted)) [µM] | IC50 ([4]; read-out: IC50) [µM] | IC50 ([4]; read-out: pIC50 (converted)) [µM] | IC50 ([5]; read-out: IC50) [µM] | IC50 ([5]; read-out: pIC50 (converted)) [µM] | SMILES | IC50 ([1]; read-out: IC50) [µM] | IC50 ([1]; read-out: pIC50 (converted)) [µM]
1 | – | – | – | – | – | – | – | c1ccc2[nH]ncc2c1 [INDAZOLE] | > 400 | > 398
2 | > 660 | – | – | – | – | – | – | O=C(Nc1ccccc1)Nc1ccccc1 | – | –
3 | – | > 667 | > 631 | > 667 | > 631 | – | – | c1ccc(Nc2ncccn2)cc1 | – | –
4 | – | – | – | > 667 | > 631 | > 667 | > 631 | c1cnc2[nH]ccc2c1 | > 400 | > 398
